# Measurements: paper PMC6429214, “Design, Synthesis and Biological Evaluation of Isoxazole-Based CK1 Inhibitors Modified with Chiral Pyrrolidine Scaffolds” (Molecules, 2019)
# What was measured:
# Assay in all cases: 33PanQinase panel
# Type in all cases: biochemical
# [1] = biological target: T1, ITK (Homo sapiens, UniProt Q08881); conditions: read-out: Residual Activity (%)
# T1 construct: purchased ProQinase
# Procedure, shortened: (§1)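 Kinases were screened with the inhibitor at a single concentration of 1 µM. Activity was measured radiometrically with 33P, and each reaction mix contained 1% DMSO. Data are expressed as percentage residual activity compared with DMSO control.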
# [2] = biological target: T2, PIM1 (Homo sapiens, UniProt P11309); conditions: PIM1, 1 µM; read-out: Residual Activity (%)
# T2 construct: purchased ProQinase
# Procedure, shortened: as §1
# [3] = biological target: T3, ERK1 (Homo sapiens, UniProt P27361); conditions: ERK1, 1 µM; read-out: Residual Activity (%)
# T3 construct: purchased ProQinase
# Procedure, shortened: as §1
# [4] = biological target: T4, ACV-R1B (Homo sapiens, UniProt P36896); conditions: read-out: Residual Activity (%)
# T4 construct: purchased ProQinase
# Procedure, shortened: as §1
# [5] = biological target: T5, MAPKAPK2 (Homo sapiens, UniProt P49137); conditions: MAPKAPK2, 1 µM; read-out: Residual Activity (%)
# T5 construct: purchased ProQinase
# Procedure, shortened: as §1
# [6] = biological target: T6, SLK (Homo sapiens, UniProt Q9H2G2); conditions: read-out: Residual Activity (%)
# T6 construct: purchased ProQinase
# Procedure, shortened: as §1
# [7] = biological target: T7, EPHB4 (Homo sapiens, UniProt P54760); conditions: EPHB4, 1 µM; read-out: Residual Activity (%)
# T7 construct: purchased ProQinase
# Procedure, shortened: as §1
# [8] = biological target: T8, DYRK1A (Homo sapiens, UniProt Q13627); conditions: read-out: Residual Activity (%)
# T8 construct: purchased ProQinase
# Procedure, shortened: as §1
# [9] = biological target: T9, MEK5 (Homo sapiens, UniProt Q13163); conditions: MEK5, 1 µM; read-out: Residual Activity (%)
# T9 construct: purchased ProQinase
# T9 sequence (Q13163 whole entry): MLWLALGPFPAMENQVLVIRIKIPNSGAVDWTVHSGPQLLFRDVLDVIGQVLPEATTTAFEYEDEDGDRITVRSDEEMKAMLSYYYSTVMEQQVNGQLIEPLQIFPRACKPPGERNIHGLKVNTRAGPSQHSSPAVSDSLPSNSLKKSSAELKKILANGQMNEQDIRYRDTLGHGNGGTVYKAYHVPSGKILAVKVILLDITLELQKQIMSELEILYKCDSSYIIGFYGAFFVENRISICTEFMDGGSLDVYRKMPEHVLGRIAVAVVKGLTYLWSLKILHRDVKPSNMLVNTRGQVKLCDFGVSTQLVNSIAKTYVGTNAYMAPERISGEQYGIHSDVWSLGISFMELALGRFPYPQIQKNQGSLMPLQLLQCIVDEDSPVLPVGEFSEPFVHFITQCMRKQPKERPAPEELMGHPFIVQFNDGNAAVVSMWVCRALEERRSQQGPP
# Procedure, shortened: as §1
# [10] = biological target: T10, PRKX (Homo sapiens, UniProt P51817); conditions: read-out: Residual Activity (%)
# T10 construct: purchased ProQinase
# Procedure, shortened: as §1
# [11] = biological target: T11, VRK1 (Homo sapiens, UniProt Q99986); conditions: VRK1, 1 µM; read-out: Residual Activity (%)
# T11 construct: purchased ProQinase
# Procedure, shortened: as §1
# [12] = biological target: T12, p38-beta (Homo sapiens, UniProt Q15759); conditions: read-out: Residual Activity (%)
# T12 construct: purchased ProQinase
# T12 sequence (Q15759 whole entry): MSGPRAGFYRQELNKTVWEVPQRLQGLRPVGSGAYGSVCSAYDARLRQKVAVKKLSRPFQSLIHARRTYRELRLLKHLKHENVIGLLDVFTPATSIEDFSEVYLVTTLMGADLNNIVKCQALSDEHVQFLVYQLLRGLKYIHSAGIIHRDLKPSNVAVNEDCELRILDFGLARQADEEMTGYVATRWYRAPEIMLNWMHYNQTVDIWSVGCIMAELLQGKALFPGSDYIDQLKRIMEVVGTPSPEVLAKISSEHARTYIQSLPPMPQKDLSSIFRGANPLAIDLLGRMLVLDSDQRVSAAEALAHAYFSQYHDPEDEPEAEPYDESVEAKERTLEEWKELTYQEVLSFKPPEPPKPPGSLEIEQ
# Procedure, shortened: as §1
# [13] = biological target: T13, FGF-R4 (Homo sapiens, UniProt P22455); conditions: FGF-R4, 1 µM; read-out: Residual Activity (%)
# T13 construct: purchased ProQinase
# Procedure, shortened: as §1
# [14] = biological target: T14, IKK-epsilon (Homo sapiens, UniProt Q14164); conditions: read-out: Residual Activity (%)
# T14 construct: purchased ProQinase
# T14 sequence (Q14164 whole entry): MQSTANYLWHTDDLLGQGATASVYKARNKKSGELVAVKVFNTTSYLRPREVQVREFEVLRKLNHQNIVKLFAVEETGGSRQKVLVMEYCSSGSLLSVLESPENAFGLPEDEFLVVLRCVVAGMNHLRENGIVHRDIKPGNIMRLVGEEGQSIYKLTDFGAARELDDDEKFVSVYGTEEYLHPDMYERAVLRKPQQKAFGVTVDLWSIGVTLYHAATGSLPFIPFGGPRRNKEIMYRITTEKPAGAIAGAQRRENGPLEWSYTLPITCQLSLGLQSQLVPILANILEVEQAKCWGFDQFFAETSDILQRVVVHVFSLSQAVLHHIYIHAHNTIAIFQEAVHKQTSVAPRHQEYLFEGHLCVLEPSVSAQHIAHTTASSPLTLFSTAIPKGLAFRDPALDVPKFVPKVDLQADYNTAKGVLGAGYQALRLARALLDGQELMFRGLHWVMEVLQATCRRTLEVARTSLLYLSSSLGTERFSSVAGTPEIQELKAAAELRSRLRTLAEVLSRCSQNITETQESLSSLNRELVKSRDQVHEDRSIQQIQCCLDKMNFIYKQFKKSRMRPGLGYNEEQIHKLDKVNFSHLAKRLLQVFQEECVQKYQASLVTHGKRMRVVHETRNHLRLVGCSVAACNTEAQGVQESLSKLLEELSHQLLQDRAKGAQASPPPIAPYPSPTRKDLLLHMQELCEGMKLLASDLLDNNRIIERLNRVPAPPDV
# Procedure, shortened: as §1
# [15] = biological target: T15, MKK6 S207D/T211D** (Homo sapiens, UniProt P52564, S207D/T211D); conditions: read-out: Residual Activity (%)
# T15 construct: purchased ProQinase
# Procedure, shortened: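 Single dose, 1 µM. Radiometric 33P kinase activity assay with final DMSO at 1%; values give residual activity as a percentage of control.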
# [16] = biological target: T16, FGF-R3 (Homo sapiens, UniProt P22607); conditions: FGF-R3, 1 µM; read-out: Residual Activity (%)
# T16 construct: purchased ProQinase
# Procedure, shortened: as §1
# [17] = biological target: T17, PDGFR-beta (Homo sapiens, UniProt P09619); conditions: read-out: Residual Activity (%)
# T17 construct: purchased ProQinase
# T17 sequence (P09619 33-1106): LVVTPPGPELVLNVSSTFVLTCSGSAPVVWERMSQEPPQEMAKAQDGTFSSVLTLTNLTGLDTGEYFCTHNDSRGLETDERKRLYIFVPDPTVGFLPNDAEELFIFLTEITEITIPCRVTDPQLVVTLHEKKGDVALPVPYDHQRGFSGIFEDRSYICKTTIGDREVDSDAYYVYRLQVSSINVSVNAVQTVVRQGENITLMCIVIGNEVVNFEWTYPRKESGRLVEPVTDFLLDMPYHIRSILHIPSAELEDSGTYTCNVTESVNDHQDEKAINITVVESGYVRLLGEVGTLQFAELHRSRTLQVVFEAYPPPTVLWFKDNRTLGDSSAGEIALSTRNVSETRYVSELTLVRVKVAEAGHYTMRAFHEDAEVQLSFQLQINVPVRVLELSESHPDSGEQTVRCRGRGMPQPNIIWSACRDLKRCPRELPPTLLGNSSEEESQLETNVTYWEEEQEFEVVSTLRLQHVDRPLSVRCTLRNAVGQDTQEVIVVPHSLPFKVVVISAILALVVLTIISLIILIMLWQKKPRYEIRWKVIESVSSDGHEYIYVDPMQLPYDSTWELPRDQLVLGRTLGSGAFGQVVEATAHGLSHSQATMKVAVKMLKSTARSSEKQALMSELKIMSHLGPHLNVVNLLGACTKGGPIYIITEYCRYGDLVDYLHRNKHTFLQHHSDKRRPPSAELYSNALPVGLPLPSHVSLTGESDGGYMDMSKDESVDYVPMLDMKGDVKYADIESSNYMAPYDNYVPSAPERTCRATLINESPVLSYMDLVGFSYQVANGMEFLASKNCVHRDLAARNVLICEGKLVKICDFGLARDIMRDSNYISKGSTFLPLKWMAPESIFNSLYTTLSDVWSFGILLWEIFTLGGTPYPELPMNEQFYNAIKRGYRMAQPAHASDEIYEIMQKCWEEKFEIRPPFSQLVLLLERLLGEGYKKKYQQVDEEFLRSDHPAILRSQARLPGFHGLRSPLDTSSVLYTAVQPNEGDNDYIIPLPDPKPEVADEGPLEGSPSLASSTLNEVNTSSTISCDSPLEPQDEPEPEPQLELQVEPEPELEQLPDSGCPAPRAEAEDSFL
# Procedure, shortened: as §1
# [18] = biological target: T18, ZAK (Homo sapiens, UniProt Q9NYL2); conditions: read-out: Residual Activity (%)
# T18 construct: purchased ProQinase
# Procedure, shortened: as §1
# [19] = biological target: T19, CHK1 (Homo sapiens, UniProt O14757); conditions: CHK1, 1 µM; read-out: Residual Activity (%)
# T19 construct: purchased ProQinase
# Procedure, shortened: as §1
# [20] = biological target: T20, STK25 (Homo sapiens, UniProt O00506); conditions: STK25, 1 µM; read-out: Residual Activity (%)
# T20 construct: purchased ProQinase
# T20 sequence (O00506 whole entry): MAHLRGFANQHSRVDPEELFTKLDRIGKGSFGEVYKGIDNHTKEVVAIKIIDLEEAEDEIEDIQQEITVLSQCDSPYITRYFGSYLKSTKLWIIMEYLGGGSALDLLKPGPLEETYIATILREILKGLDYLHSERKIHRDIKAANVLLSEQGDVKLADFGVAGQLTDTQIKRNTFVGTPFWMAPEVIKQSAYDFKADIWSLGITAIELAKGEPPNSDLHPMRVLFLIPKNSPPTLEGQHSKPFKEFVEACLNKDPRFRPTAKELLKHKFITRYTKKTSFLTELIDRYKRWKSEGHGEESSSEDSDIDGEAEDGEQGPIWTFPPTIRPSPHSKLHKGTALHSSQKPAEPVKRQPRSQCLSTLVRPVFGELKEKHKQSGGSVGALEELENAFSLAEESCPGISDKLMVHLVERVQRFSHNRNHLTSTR
# Procedure, shortened: as §1
# [21] = biological target: T21, B-RAF (Homo sapiens, UniProt P15056); conditions: read-out: Residual Activity (%)
# T21 construct: purchased ProQinase
# Procedure, shortened: as §1
# [22] = biological target: T22, PAK4 (Homo sapiens, UniProt O96013); conditions: PAK4, 1 µM; read-out: Residual Activity (%)
# T22 construct: purchased ProQinase
# Procedure, shortened: as §1
# [23] = biological target: T23, EPHA7 (Homo sapiens, UniProt Q15375); conditions: EPHA7, 1 µM; read-out: Residual Activity (%)
# T23 construct: purchased ProQinase
# Procedure, shortened: as §1
# [24] = biological target: T24, ACK1 (Homo sapiens, UniProt Q07912); conditions: ACK1, 1 µM; read-out: Residual Activity (%)
# T24 construct: purchased ProQinase
# T24 sequence (Q07912 whole entry): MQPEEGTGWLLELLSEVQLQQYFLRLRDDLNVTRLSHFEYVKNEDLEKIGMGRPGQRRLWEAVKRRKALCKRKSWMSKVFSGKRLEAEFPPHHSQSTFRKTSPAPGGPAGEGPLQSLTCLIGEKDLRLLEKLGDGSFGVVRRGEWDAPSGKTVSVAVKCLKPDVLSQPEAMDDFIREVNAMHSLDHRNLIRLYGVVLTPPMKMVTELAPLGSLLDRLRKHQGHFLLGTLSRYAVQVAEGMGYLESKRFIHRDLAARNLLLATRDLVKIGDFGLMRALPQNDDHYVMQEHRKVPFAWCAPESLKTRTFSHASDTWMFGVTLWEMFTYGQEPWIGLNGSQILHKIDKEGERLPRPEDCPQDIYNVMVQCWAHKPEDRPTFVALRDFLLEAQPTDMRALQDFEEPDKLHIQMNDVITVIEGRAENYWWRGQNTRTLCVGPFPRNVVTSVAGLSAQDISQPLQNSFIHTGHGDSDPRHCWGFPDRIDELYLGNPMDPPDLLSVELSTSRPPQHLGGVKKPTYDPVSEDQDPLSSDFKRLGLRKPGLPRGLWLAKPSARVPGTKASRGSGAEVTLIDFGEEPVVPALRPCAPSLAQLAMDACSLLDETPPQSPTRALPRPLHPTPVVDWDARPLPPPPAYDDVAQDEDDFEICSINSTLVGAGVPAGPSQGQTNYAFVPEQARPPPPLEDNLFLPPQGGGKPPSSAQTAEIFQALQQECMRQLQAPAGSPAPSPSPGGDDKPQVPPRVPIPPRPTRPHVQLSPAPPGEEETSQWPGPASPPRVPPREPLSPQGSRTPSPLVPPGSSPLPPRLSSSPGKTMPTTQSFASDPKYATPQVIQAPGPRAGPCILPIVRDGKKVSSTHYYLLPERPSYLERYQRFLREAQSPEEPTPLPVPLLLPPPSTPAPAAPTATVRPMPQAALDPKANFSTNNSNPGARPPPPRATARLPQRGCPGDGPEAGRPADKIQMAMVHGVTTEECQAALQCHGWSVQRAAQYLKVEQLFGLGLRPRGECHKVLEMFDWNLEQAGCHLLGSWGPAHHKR
# Procedure, shortened: as §1
# [25] = biological target: T25, EPHA2 (Homo sapiens, UniProt P29317); conditions: EPHA2, 1 µM; read-out: Residual Activity (%)
# T25 construct: purchased ProQinase
# Procedure, shortened: as §1
# [26] = biological target: T26, FES (Homo sapiens, UniProt P07332); conditions: read-out: Residual Activity (%)
# T26 construct: purchased ProQinase
# Procedure, shortened: as §1
# [27] = biological target: T27, DAPK1 (Homo sapiens, UniProt P53355); conditions: DAPK1, 1 µM; read-out: Residual Activity (%)
# T27 construct: purchased ProQinase
# Procedure, shortened: as §1
# [28] = biological target: T28, AKT3 aa106-479 (Homo sapiens, UniProt Q9Y243); conditions: AKT3 aa106-479, 1 µM; read-out: Residual Activity (%)
# T28 construct: purchased ProQinase
# Procedure, shortened: as §1
# [29] = biological target: T29, RPS6KA5 (Homo sapiens, UniProt O75582); conditions: RPS6KA5, 1 µM; read-out: Residual Activity (%)
# T29 construct: purchased ProQinase
# Procedure, shortened: as §1
# [30] = biological target: T30, TBK1 (Homo sapiens, UniProt Q9UHD2); conditions: TBK1, 1 µM; read-out: Residual Activity (%)
# T30 construct: purchased ProQinase
# T30 sequence (Q9UHD2 whole entry): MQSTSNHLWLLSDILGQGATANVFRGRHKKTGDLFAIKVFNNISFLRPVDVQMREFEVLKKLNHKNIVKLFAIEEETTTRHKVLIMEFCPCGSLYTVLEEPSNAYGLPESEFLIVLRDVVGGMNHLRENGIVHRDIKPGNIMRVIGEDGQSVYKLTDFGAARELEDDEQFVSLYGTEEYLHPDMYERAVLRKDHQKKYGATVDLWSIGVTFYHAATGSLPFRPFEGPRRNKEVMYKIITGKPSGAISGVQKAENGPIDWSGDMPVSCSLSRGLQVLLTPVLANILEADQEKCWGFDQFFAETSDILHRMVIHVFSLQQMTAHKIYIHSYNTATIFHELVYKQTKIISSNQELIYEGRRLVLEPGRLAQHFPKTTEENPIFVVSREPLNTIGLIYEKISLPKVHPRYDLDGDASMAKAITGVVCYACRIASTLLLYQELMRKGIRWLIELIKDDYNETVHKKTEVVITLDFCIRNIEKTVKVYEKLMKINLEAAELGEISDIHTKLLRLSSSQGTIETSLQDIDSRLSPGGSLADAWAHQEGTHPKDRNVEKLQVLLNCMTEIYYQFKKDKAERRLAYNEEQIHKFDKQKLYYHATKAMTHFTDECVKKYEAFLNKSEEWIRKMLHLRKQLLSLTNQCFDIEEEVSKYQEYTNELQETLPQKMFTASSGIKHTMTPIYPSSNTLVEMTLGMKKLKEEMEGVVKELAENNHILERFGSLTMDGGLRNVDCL
# Procedure, shortened: as §1
compound,measurement,setting,value
COc1ccc(-c2cc(C(=O)Nc3cc(-c4c(-c5ccc(F)cc5)noc4C(C)C)ccn3)n(CC3NCC(O)C3O)c2)cc1 (stereo not drawn) [29d],remaining activity at 1 µM,[1],114%
same,remaining activity at 1 µM,[2],94%
same,remaining activity at 1 µM,[3],102%
same,remaining activity at 1 µM,[4],103%
same,remaining activity at 1 µM,[5],96%
same,remaining activity at 1 µM,[6],114%
same,remaining activity at 1 µM,[7],118%
same,remaining activity at 1 µM,[8],120%
same,remaining activity at 1 µM,[9],110%
same,remaining activity at 1 µM,[10],92%
same,remaining activity at 1 µM,[11],117%
same,remaining activity at 1 µM,[12],74%
same,remaining activity at 1 µM,[13],125%
same,remaining activity at 1 µM,[14],94%
same,remaining activity at 1 µM,[15],91%
same,remaining activity at 1 µM,[16],118%
same,remaining activity at 1 µM,[17],91%
same,remaining activity at 1 µM,[18],116%
same,remaining activity at 1 µM,[19],97%
same,remaining activity at 1 µM,[20],98%
same,remaining activity at 1 µM,[21],95%
same,remaining activity at 1 µM,[22],92%
same,remaining activity at 1 µM,[23],100%
same,remaining activity at 1 µM,[24],96%
same,remaining activity at 1 µM,[25],103%
same,remaining activity at 1 µM,[26],120%
same,remaining activity at 1 µM,[27],101%
same,remaining activity at 1 µM,[28],95%
same,remaining activity at 1 µM,[29],101%
same,remaining activity at 1 µM,[30],113%
